{"source": "patent US20080009546A1", "about": "(Chevron U.S.A. Inc., priority 2005, published 2008)", "key": {"C57/BL6 male mice [1]": {"system": "C57/BL6 male mice", "assay": "Rotarod test (balance and coordination, side effects)", "conditions": "mouse, in vivo", "method": "The side effects of the compounds was primarily evaluated using the rotarod test, which mainly assesses the balancing and coordination of mice. The comparisons were made on fall time of the mice between the first measure (pre-treatment) and second measure taken 20 min after the drug/vehicle injection in the same group (paired t-test). […] Comparisons of the rotatod fall times after drug/vehicle dosing were made between drug treatment and control groups (unpaired t-test)."}, "C57/BL6 male mice [2]": {"system": "C57/BL6 male mice", "assay": "Pentylenetetrazol (PTZ)-induced seizure/death model", "assay_type": "in vivo, mouse", "conditions": "for # of deaths within 30 min: 6 mice; for # of deaths within 30 min / PTZ-induced death: PTZ 100 mg/kg; for PTZ-induced death: 30 min observation", "method": "Although the protection against death is the key endpoint, other effects of the compounds on PTZ-induced seizures were also assessed using multiple parameters. For the mice that did die within the 30 minute observation window, the time of death was also compared. […] The seizure occurrence rate, onset time and number of level 3 (L3) seizure (repetitive seizures but the animal can still stand) and level 4 (L4) seizure (repetitive seizures and the animal loses righting) are also analyzed. The MDT compound (30 mg/kg) treated groups show a certain degree of improvement compared to control. No data from MK801 or memantine were included because the seizures occurring under these treatments are totally different from the control or MDT injected groups due to side effects (“high jumping”)."}, "C57/BL6 male mice [3]": {"system": "C57/BL6 male mice"}, "NMDA receptor [4]": {"target": "NMDA receptor", "assay": "[3H]MK-801 binding assay, NMDA receptors in guinea pig brain membranes", "method": "Hartley guinea pigs were sacrificed, and their brains were quickly removed and weighed. The brains then were homogenized in 50 mM Tris HCl buffer, pH 7.7, using a Polytron homogenizer. The homogenate was centrifuged at 40,000×g for 15 min, rehomogenized, and centrifuged again. The final pellet was resuspended in Tris-HCl, pH 7.7, at a final concentration of 6.67 mg original wet weight of tissue/ml. […] The samples were then filtered through glass fiber filters on a Tomtec cell harvester. The filters were washed 3 times with 3 ml of cold buffer. Filters were dried overnight and counted next day on a Wallac Betaplate Reader.\nThe binding experiments were conducted as follows. […] For each compound, graphs were prepared containing individual competition curves obtained for that compound. IC50 values and Hill coefficients were calculated using the program Prism. Ki values were calculated using the Chang Prusoff transformation: Ki=IC50/(1+L/Kd)\nwhere L is radioligand concentration and Kd is the binding affinity of the radioligand, as determined previously by saturation analysis. […] In each experiment, one standard compound was simultaneously run on each 96 well plate."}, "NMDA receptor [5]": {"system": "NMDA receptor", "assay": "Whole-cell voltage-clamp recordings of NMDA evoked currents in hypocretin neurons (hypothalamic slices)", "assay_type": "cell-based, mouse"}}, "note": "Like-named read-outs stand apart in the source and are kept apart here.", "data": [{"compound": "CC12CC3CC(C)(C1)CC(N)(C3)C2", "note": "[memantine, 1-amino-3,5-dimethyladamantane, reference compound]", "values": [{"measurement": "rotarod fall time, pre-treatment vs 20 min after injection", "setting": "C57/BL6 male mice [1]", "result": "loss of performance"}, {"measurement": "hyperactivity (side effect)", "setting": "C57/BL6 male mice [1]; ip, 30 mg/kg", "result": "observed"}, {"measurement": "rotarod performance after dosing vs. control", "setting": "C57/BL6 male mice [1]; ip, 30 mg/kg", "result": "statistically significant decreases in rotarod performance"}, {"measurement": "Mortality rate", "setting": "C57/BL6 male mice [2]; 10 mg/kg i.p.", "result": 0.17}, {"measurement": "# of deaths within 30 min", "setting": "C57/BL6 male mice [2]; 10 mg/kg i.p.", "result": 1}, {"measurement": "Mortality rate", "setting": "C57/BL6 male mice [2]; 30 mg/kg i.p.", "result": 0}, {"measurement": "# of deaths within 30 min", "setting": "C57/BL6 male mice [2]; 30 mg/kg i.p.", "result": 0}, {"measurement": "PTZ-induced death", "setting": "C57/BL6 male mice [2]; 10 and 30 mg/kg i.p.", "result": "dose-dependent reduction in death"}, {"measurement": "PTZ-induced death", "setting": "C57/BL6 male mice [2]; high dose 30 mg/kg i.p.", "result": "full protection"}, {"measurement": "Extension rate", "setting": "C57/BL6 male mice [3]; 10 mg/kg i.p.", "result": 0.67}, {"measurement": "Mortality rate", "setting": "C57/BL6 male mice [3]; 10 mg/kg i.p.", "result": 0}, {"measurement": "# of deaths", "setting": "C57/BL6 male mice [3]; 10 mg/kg i.p., 6 mice", "result": 0}, {"measurement": "# of extensions", "setting": "C57/BL6 male mice [3]; 10 mg/kg i.p., 6 mice", "result": 4}, {"measurement": "MES-induced death", "setting": "C57/BL6 male mice [3]; low dose 10 mg/kg i.p., mice", "result": "protected all mice from death"}, {"measurement": "Ki", "setting": "NMDA receptor [4]; [3H]MK-801 (1 nM), guinea pig brain membrane preparation, read-out: Ki (binding affinity)", "result": 730, "unit": "nM"}, {"measurement": "Relative affinity", "setting": "NMDA receptor [4]; compared to that of Memantine", "result": "1 ^"}, {"measurement": "Ki", "setting": "NMDA receptor [4]; standard compounds at the NMDA site (Table 27), read-out: Ki", "result": "733 ± 130", "unit": "nM"}, {"measurement": "reversibility of inhibition of NMDA evoked currents upon washout", "setting": "NMDA receptor [5]", "result": "reversible"}, {"measurement": "inhibition of the peak amplitude of NMDA evoked currents", "setting": "NMDA receptor [5]; 10 µM", "result": "41.3±10", "unit": "%"}, {"measurement": "inhibition of the peak amplitude of NMDA evoked currents", "setting": "NMDA receptor [5]; 30 µM", "result": "52.7±7.4", "unit": "%"}]}]}
